Source: paper PMC4891657, “Orexin 2 Receptor Antagonism is Sufficient to Promote NREM and REM Sleep from Mouse to Man” (Scientific Reports, 2016)
Changes are numbered by the printed parent chain. Values belong to the compound of their own block, whether it stands above or below them.

Legend:
OX2R [1] = target: T1, OX2R (Canis lupus familiaris, UniProt Q9TUP7); experiment: Radio-ligand displacement binding, CHO-K1 membranes, dog OX2R; details: for fold OX2R selectivity (Ki): OX1R Ki / OX2R Ki; for Ki: read-out: OX2R affinity (Ki)
T1 construct: expressed in transfected cells; host or cells: CHO-K1
T1 sequence (Q9TUP7 1-444): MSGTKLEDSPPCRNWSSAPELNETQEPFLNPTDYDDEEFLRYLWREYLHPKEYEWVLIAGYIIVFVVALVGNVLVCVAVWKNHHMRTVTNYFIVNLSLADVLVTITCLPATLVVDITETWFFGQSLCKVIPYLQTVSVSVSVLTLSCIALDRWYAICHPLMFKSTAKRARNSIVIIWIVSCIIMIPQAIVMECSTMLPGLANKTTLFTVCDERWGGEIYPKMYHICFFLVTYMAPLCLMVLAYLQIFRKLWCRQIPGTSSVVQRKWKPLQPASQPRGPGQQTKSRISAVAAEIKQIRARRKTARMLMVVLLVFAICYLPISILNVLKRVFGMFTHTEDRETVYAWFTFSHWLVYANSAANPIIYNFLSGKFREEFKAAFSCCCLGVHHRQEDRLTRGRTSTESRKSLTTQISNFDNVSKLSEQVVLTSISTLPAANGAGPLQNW
Description: (§1) MK-1064 was evaluated for its ability to inhibit orexin-peptide-A-induced calcium mobilization in CHO cell lines separately expressing OX1R and OX2R from mice, rats, rabbits, dogs, rhesus monkeys and humans.
(§2) Binding and functional blockade of OX1R and OX2R with MK-1064 relative to other 2-SORAs and the DORA, MK-6096, were assessed using membranes from Chinese hamster ovary (CHO)-K1 cells (American Type Tissue Collection, Manassas, VA) transfected to express human, mouse, rat, rabbit, dog, or rhesus monkey OX1R or OX2R receptors, as described previously. The kinetics of binding to human OX2R was assessed by radioligand displacement on CHO-K1 cells expressing the receptor. […] The ON rate analysis was performed by presoaking GF/B filters in 0.3% polyethyleneimine (Sigma) using a Skatron 12-well cell harvester and cold buffer at the indicated time points after addition. For OFF rate determination, binding reactions were allowed to proceed to equilibrium and terminated with 1000x [Kd] of unlabeled antagonist and filtered as above at pre-determined time points. Ultima Gold^TM (PerkinElmer 6013327) scintillation cocktail was added to each filter disc and counted on a PerkinElmer TriCarb 2910 scintillation counter. Data were analyzed using GraphPad® Prism v 6.04 (San Diego, CA, USA). The KON rate was determined according to the equation, KON = (KOBS − KOFF)/[ligand].

OX1R = target: T2, OX1R (Oryctolagus cuniculus, UniProt G1SPJ3); experiment: Inhibition of orexin-peptide-A-induced calcium mobilization in CHO cells, rabbit OX1R; format: cell-based
T2 sequence (G1SPJ3 1-416): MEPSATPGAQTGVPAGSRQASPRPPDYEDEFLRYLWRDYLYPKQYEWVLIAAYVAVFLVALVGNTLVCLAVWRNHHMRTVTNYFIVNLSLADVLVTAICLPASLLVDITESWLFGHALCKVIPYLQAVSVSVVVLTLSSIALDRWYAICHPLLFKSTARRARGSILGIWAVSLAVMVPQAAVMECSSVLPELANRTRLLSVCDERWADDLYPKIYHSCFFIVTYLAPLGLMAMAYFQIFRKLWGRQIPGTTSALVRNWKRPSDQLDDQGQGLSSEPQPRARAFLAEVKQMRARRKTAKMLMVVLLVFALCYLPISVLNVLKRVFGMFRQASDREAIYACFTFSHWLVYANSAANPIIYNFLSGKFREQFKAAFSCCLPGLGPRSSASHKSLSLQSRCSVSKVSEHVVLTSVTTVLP
Description: as §1, §2

hOX1R = target: T3, hOX1R (Homo sapiens, UniProt O43613); experiment: Inhibition of orexin-peptide-A-induced calcium mobilization in CHO cells, human OX1R; format: cell-based
T3 construct: expressed in transfected cells; host or cells: CHO-K1
T3 sequence (O43613 1-425): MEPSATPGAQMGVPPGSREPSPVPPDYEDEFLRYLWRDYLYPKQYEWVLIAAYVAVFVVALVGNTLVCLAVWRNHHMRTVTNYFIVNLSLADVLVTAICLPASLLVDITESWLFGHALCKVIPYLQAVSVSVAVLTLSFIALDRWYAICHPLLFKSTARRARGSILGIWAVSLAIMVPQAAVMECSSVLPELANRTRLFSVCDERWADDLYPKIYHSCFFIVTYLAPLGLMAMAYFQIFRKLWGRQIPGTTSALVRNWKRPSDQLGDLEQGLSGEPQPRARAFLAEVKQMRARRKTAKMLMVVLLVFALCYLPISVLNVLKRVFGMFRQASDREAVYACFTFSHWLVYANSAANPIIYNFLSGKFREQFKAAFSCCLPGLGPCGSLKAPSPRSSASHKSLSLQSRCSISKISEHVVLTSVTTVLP
Description: as §1, §2

OX2R [2] = target: T4, OX2R (Macaca mulatta, UniProt F7CZM2); experiment: Radio-ligand displacement binding, CHO-K1 membranes, rhesus OX2R; parameters: species or system rhesus monkey; details: for fold OX2R selectivity (Ki): OX1R Ki / OX2R Ki; for Ki: read-out: OX2R affinity (Ki)
T4 sequence (F7CZM2 1-444): T1 sequence (Q9TUP7 1-444) with P19S, V70I, V113L, T195S, L197F, A272V, Q281P, E337D, V417I
Description: as §1, §2

SMILES: COc1ccc(CNC(=O)c2cc(-c3cncc(C)c3)ncc2-c2ccccc2)nc1OC [2-SORA-7]
- fold OX2R selectivity (Ki) (OX2R [1]): [2857] fold
- Ki (OX2R [1]): 0.63 nM
- Kb (OX1R): 16800 nM
- Kb (hOX1R): 4360 nM
- fold OX2R selectivity (Ki) (OX2R [2]): [1994] fold
- Ki (OX2R [2]): 0.67 nM

SMILES: COc1ccc(CNC(=O)c2cc(-c3cc(Cl)cc(Cl)c3)cnc2-c2cccnc2)cc1OC [2-SORA-18]
- fold OX2R selectivity (Ki) (OX2R [1]): [782] fold
- Ki (OX2R [1]): 0.11 nM
- Kb (OX1R): 496 nM
- Kb (hOX1R): 161 nM
- fold OX2R selectivity (Ki) (OX2R [2]): [1200] fold
- Ki (OX2R [2]): 0.11 nM

SMILES: COc1ccc(CNC(=O)c2cc(-c3cncc(Cl)c3)cnc2-c2ccccn2)nc1OC [MK-1064, 5″-chloro-N-[(5,6-dimethoxypyridin-2-yl)methyl]-2,2′:5′, 3″-terpyridine-3′-carbo xamide]
- fold OX2R selectivity (Ki) (OX2R [1]): [1667] fold
- Ki (OX2R [1]): 0.78 nM
- Kb (OX1R): 7370 nM
- Kb (hOX1R): 1870 nM
- fold OX2R selectivity (Ki) (OX2R [2]): [1315] fold
- Ki (OX2R [2]): 0.62 nM

- Ki (OX2R [1]): 1.1 nM
- Kb (OX1R): 32100 nM
- Ki (OX2R [2]): 1.14 nM
SMILES: COc1ccc(CNC(=O)c2cc(-c3cncc(C)c3)ncc2-c2nccs2)nc1OC [MK-3697]

SMILES: Cc1ccc(-c2ncccn2)c(C(=O)N2C[C@H](COc3ccc(F)cn3)CC[C@H]2C)c1 [MK-6096]
- fold OX2R selectivity (Ki) (OX2R [1]): [7.5] fold
- Ki (OX2R [1]): 0.36 nM
- Kb (OX1R): 13 nM
- Kb (hOX1R): 11 nM
- fold OX2R selectivity (Ki) (OX2R [2]): [28.4] fold
- Ki (OX2R [2]): 0.44 nM
